Measurements as given in article PMC11099041, “Tissue distribution and retention drives efficacy of rapidly clearing VHL-based PROTACs” (Communications Medicine, 2024).
Read-outs that look alike come from different tables or passages of the source. Blank lines part the entries; values can stand above or below the compound they belong to.

Columns and labels:
[1] = Metabolite profiling in rat bile, urine and feces (radio-HPLC, LC-HRMS); assay type: in vivo; details: for %rad in feces: pooled feces
Description: Tissue homogenate samples at 24 hours were extracted as plasma samples. […] The pooled urine samples containing 10% MeOH were analyzed by liquid chromatography-high resolution mass spectrometry (LC-HRMS).
The pooled bile sample containing 10% MeOH was analyzed by LC-HRMS.
Feces samples obtained from BDC and intact rats were pooled separately across time intervals for each animal (5% w/v) and further pooled across animals for each group to generate a 0–68 hour pooled sample. Approximately 1–2 g of each pooled feces sample was extracted as the same protocol used for plasma samples. […] The reconstituted samples were analyzed by LC-HRMS.
The reconstituted samples were analyzed by LC-HRMS, with eluent fractions collected at 10-second intervals into 96-well plates containing solid scintillant. Radioactivity in each well was determined using TopCount analysis, and radiochemical profiles were generated based on radioactivity counts. Structural elucidation was performed based on mass spectral interpretation to identify metabolites.
For metabolite profiling and identification, LC-MS analysis used a Shimadzu/Nexera LC-30 AD liquid chromatographic system and a ThermoFisher Scientific Q Exactive with a positive/negative heated electrospray interface. The column was a Waters XSelect HSS T3 4.6 mm × 250 mm, 3.5 µm and maintained at 40 °C. The mobile phases were (A) 20 mM ammonium acetate in water and (B) acetonitrile. […] The flow was 1 mL/min and split 20% to mass analysis and 80% collected for radioactivity counting. Mass spectrometry data was acquired with full scans at a resolution of 70,000 for a m/z range of 300 to 1500, and MS/MS scans were acquired at a resolution of 17,500. The mass spectrometer was operated with a normalized collision energy of 30 (ESI+), S-Lens RF level of 60, source voltage of +3.5 kV, Capillary temperature of 320 °C, and Probe heater temperature of 300 °C.

[2] = human, 3 h, 5 µM
Description: (§1) Hepatocyte cell count was ~1.1–1.8 × 10^6 cells/mL. After 3 h, samples were quenched with 3 volumes of acetonitrile, vortex mixed, and centrifuged. The supernatant (5 µL) was analyzed by LC-MS using a Kinetex EVO C18 column (1.7 μm, 2.1 × 150 mm) at 40 °C with a flow rate of 0.4 mL/min. Mobile phase A was 20 mM ammonium acetate in water, and mobile phase B was acetonitrile. The column was initially held at 5% B for 2 min, increased to 75% B over 33 minutes, and then increased to 95% B over 3 min, where it was maintained for 3 minutes before returning to 5% B over 0.5 min for re-equilibration. Mass spectrometry data was acquired using positive ion mode and data-dependent MS^2 acquisition.

[3] = male, Wistar Han, rat, 3 h, 5 µM
Description: as §1

[4] = In vitro metabolism in human hepatocytes; details: human hepatocytes, 5 µM A947, 3 hr
Description: as §1

[5] = In vitro metabolism in rat hepatocytes; details: 5 µM A947, 3 hr
Description: as §1

[6] = Protein binding by equilibrium dialysis (plasma, tissue homogenates, DPBS); assay type: in vitro ADME, rat; details: rat, plasma
Description: Control plasma was purchased from BioIVT, Hicksville, New York. Pooled plasma was obtained from at least three rats with K2EDTA as the anticoagulant. Control plasma was used to test the suitability of the system and for positive control analysis. Dulbecco’s phosphate-buffered saline (DPBS) (Millipore Sigma, St Louis, Missouri) was used to test the suitability of the system and as the receiver side of the dialysis device. […] The stock solution was added to the matrix (plasma or DPBS) and swirled to mix. The fortified matrix was then incubated at 37 °C for 15 min. Triplicate aliquots of the fortified matrix were analyzed by LSC.
The high throughput dialysis apparatus, model HTD96b, was used (HTDialysis LLC, Gales Ferry, Connecticut). Prior to assembly, dialysis membrane strips (molecular weight cutoff of 6–8 kDa) were hydrated, and the Teflon bars were assembled according to manufacturer’s instructions, with dialysis membrane strips laid between bars creating two compartments per well. The assembled unit was locked in place in the steel base plate. A 150 µL aliquot of each fortified matrix (tissue homogenates, plasma, or DPBS) and DPBS were added to the donor and receiver side of the HTD wells in a Teflon plate, respectively, and the plate was sealed. Samples were incubated at 37 °C and rotated at 300 rpm for 7 hours. After incubation, the seal was removed, and tissue homogenates, plasma, or DPBS and dialysate from each device insert were analyzed by LSC. All protein binding determinations were performed in triplicate.
Dialysis was performed accordingly. The radioactivity concentration of the test article in the donor and receiver samples was determined by LSC (count time 60 min) for the calculation of protein binding. […] After the designated time, aliquots of the individual donor and receiver samples were removed and analyzed by LSC. The remaining sample volume was stored at −20 °C.
Dialysis was performed accordingly.
Protein binding by equilibrium dialysis:1 PercentDrugBound=(Cm-Cd)/Cm×100 2 PercentDrugUnbound=100-PercentBound where: Cd, concentration of test article in dialysate at equilibrium; Cm, Concentration of test article in matrix at equilibrium.
Recovery from equilibrium dialysis:3 Recovery(%)=(Cm×Vm)+(Cd×Vd)/(Co×Vo)×100 where: Cm, Concentration of test article in matrix at equilibrium; Cd, Concentration of test article in dialysate at equilibrium; Co, Original concentration of test article in matrix prior to loading the dialysis device; Vm, Nominal volume of the matrix at equilibrium; Vd, Nominal volume of the dialysate at equilibrium; Vo, Nominal volume of the original matrix added to the dialysis device.

[7] = IV 4 mg/kg, pooled 0–168-hour bile
[8] = Sprague Dawley, in vivo, iv, 4 mg/kg

SMILES: Nc1nnc(-c2ccccc2O)cc1N1CC2CCC(C1)N2c1ccnc(OC2CC(OC3CCNCC3)C2)c1 (stereo not drawn) [M10]
%Rad in bile [1, 7]: 4.48%
Estimated relative distribution percent of mass spectral abundance [2]: 2.6%
Estimated relative distribution percent of mass spectral abundance [3]: 2.2%

SMILES: Nc1nnc(-c2ccccc2O)cc1N1CC2CCC(C1)N2c1ccnc(OC2CC(OC3CCN(C=O)CC3)C2)c1 (stereo not drawn) [M18]
%Rad in bile [1, 8]: 6.31%

SMILES: CC(C)C(C(=O)N1CC(O)CC1C(=O)O)c1cc(N2CCC(CN3CCC(OC4CC(Oc5cc(N6C7CCC6CN(c6cc(-c8ccccc8O)nnc6N)C7)ccn5)C4)CC3)CC2)no1 (stereo not drawn) [M8]
%Rad in bile [1, 8]: 3.47%

Estimated relative distribution percent of mass spectral abundance [4]: 0.04%
Estimated relative distribution percent of mass spectral abundance [5]: 0.2%
SMILES: Cc1ncsc1-c1ccc(C(C)NC(=O)C2CC(O)CN2C(=O)C(c2cc(N3CCC(C(=O)O)CC3)no2)C(C)C)cc1 (stereo not drawn) [M3]

Percent Unbound ([6]; 7 h, 3000 ng/mL): approximately 1.5%
fraction unbound at 7 h, 3000 ng/mL ([6]; Fu): 0.015
fraction unbound at 7 h, 3000 ng/mL ([6]; Percent Unbound): 0.0146
SMILES: CC(=O)CC(c1ccccc1)c1c(O)c2ccccc2oc1=O (stereo not drawn) [14C-warfarin, warfarin, reference compound]

SMILES: CC(C)C(C(=O)O)c1cc(N2CCC(CN3CCC(OC4CC(Oc5cc(N6C7CCC6CN(c6cc(-c8ccccc8O)nnc6N)C7)ccn5)C4)CC3)CC2)no1 (stereo not drawn) [M9]
%Rad in bile [1, 8]: 3.08%

SMILES: Nc1nnc(-c2ccccc2O)cc1N1CC2CCC(C1)N2c1ccnc(OC2CC(O)C2)c1 (stereo not drawn) [M11]
%Rad in bile [1, 7]: 2.79%
%rad in feces ([1]; IV 4 mg/kg): 4.34%
%rad in urine ([1]; IV 4 mg/kg, pooled urine): 2.93%
Estimated relative distribution percent of mass spectral abundance [2]: 0.8%
Estimated relative distribution percent of mass spectral abundance [3]: 0.8%

SMILES: Nc1nnc(-c2ccccc2O)cc1N1CC2CCC(C1)N2c1ccnc(O)c1 [M5]
%Rad in bile [1, 7]: 1.49%
%rad in feces ([1]; IV 4 mg/kg): 1.86%
%rad in urine ([1]; IV 4 mg/kg, pooled urine): 7.53%
Estimated relative distribution percent of mass spectral abundance [2]: 0.1%

SMILES: Cc1ncsc1-c1ccc(C(C)NC(=O)C2CC(OC3OC(C(=O)O)C(O)C(O)C3O)CN2C(=O)C(c2cc(N3CCC(CN4CCC(OC5CC(Oc6cc(N7C8CCC7CN(c7cc(-c9ccccc9OC9OC(C(=O)O)C(O)C(O)C9O)nnc7N)C8)ccn6)C5)CC4)CC3)no2)C(C)C)cc1 (stereo not drawn) [M17]
%rad in urine [1, 8]: 21.86%
